Test results taken from patent US11110115B2, “Nucleic acid molecule with anti-inflammatory and anti-coagulant and organ-protective properties” (APTAHEM AB, priority 2017, dated 2021).

Columns and labels:
[1] = Prothrombin time in arteriovenous shunt model; type: in vivo, Sprague-Dawley male rats; conditions: SEQ ID NO:2 33.3 mg/kg i.v. 5 min prior; Rivaroxaban 10 mg/kg p.o. 90 min prior
Protocol: FIG. 2: Anti-coagulant activity of SEQ ID NO:2 in Arteriovenous Shunt model. Male rats were intravenously injected with saline (Vehicle) or SEQ ID NO:2 solution, according to their body weight. Rivaroxaban was orally administered to the positive control group. 5 to 90 minutes after administration, rats were anesthetized with pentobarbital-na (50 mg/kg). The left jugular vein and the right carotid artery of anesthetized rats were connected with two catheters. The thrombus weight formed on the thread was calculated by subtracting the average weight of the rough nylon thread (A). Prothrombin times were measured (B) and Activated partial thromboplastin times (APTT) were analysed (C). Each bar represents the mean±SEM (n=8 for vehicle and rivaroxaban groups, n=3 for SEQ ID NO:2 group), *p<0.05, **p<0.01, ***p<0.001 vs Vehicle.
The animals were assigned to 3 dosing groups according to the body weight (see table 2). Vehicle treated animals were intravenously injected with saline 90 min prior to shunt assay. The positive control treated animals were orally given Rivaroxaban 10 mg/kg at 90 min prior to shunt assay. SEQ ID NO:2 was intravenously injected 5 min prior to shunt assay.

[2] = Activated partial thromboplastin time (APTT) in arteriovenous shunt model; type: in vivo, Sprague-Dawley male rats; conditions: SEQ ID NO:2 33.3 mg/kg i.v. 5 min prior; Rivaroxaban 10 mg/kg p.o. 90 min prior
[3] = Tail bleeding model (bleeding time); type: in vivo, Sprague-Dawley rats; conditions: SEQ ID NO:2 5, 20, 40 mg/kg i.v. 5 min before, Rivaroxaban 10 mg/kg PO 1 hour before, Warfarin 0.5 mg/kg IV
Protocol: A total of 36 Sprague-Dawley male and female rats were utilized and divided into six groups comprising of 6 animals per group. Animal handling was performed according to guidelines of the National Institute of Health and the Association for Assessment and Accreditation of Laboratory Animal Care. Animals were fed ad libitum a commercial rodent diet (Teklad Certified Global 18% Protein Diet cat #: 2018SC). Animals had free access to autoclaved and acidified drinking water (pH between 2.5 and 3.5) obtained from the municipality supply. Animals were housed under standard laboratory conditions, air conditioned and filtered with adequate fresh air supply. Animals were kept in a climate controlled environment.
SEQ ID NO:2 (Biospring) (100 mg) was dissolved in 5 ml saline to form a stock solution of 20 mg/ml. Vehicle (saline) was provided by Pharmaseed as ready to use for i.v. administration. Rivaroxaban (Bayer, Pharmaseed Ltd) dosing solution was diluted at 10 mg/kg (Group 2M). Warfarin (Ceriliant, Pharmaseed Ltd) was diluted at 0.5 mg/kg (Group 3M). Both Rivaroxaban and Warfarin are clinical standards with anticoagulation activity. To obtain SEQ ID NO:2 dosing solution (2.5 mg/ml) for dose level of 5 mg/kg and dose volume of 2 ml/kg for i.v. injection, 0.375 ml of the above 20 mg/ml stock solution was diluted with 2.625 ml of saline (Group 4M). To obtain SEQ ID NO:2 dosing solution (10 mg/ml) for dose level of 20 mg/kg and dose volume of 2 ml/kg for i.v. injection, 1.5 ml of the above 20 mg/ml stock solution was diluted with 1.5 ml saline (Group 5M). To obtain SEQ ID NO:2 dosing solution (20 mg/ml) for dose level of 40 mg/kg and dose volume of 2 ml/kg for i.v. injection, the above 20 mg/ml stock used (Group 6).
Rats were intravenously injected five minutes before bleeding time assay. […] Three treated groups received SEQ ID NO:2 at dose levels of 5, 20 and 40 mg/kg saline solution. In each gender, control groups received saline Vehicle. A positive control group received Rivaroxaban (10 mg/kg). Rivaroxaban was administered by oral gavage 1 hour before bleeding time assay. A second positive control groups received Warfarin (0.5 mg/kg).
Male and female rats were anaesthetized by intraperitoneal injection of ketamine/xylazine. Bleeding time was monitored as described in Stupnisek et al. (2012), until blood flow stopped for a complete 30-sec interval or till the end of 30 min period. In deeply anaesthetized rats (placed in ventral position) the tail was transected with a surgical scalpel 2 mm from the tip (and submerged into a tube with 40 ml of saline at room temperature in vertical position) and the duration and amount of bleeding was measured to evaluate the hemostatic effect of the agents or saline administration. Following the completion of bleeding time evaluation, all rats were immediately sacrificed by CO2 asphyxiation.
Numerical results were given as means±standard errors. If applicable, statistical analysis was carried out using one-way ANOVA followed by Dunnett's Multiple Comparison post Test. A probability of 5% (p≤0.05) was regarded as significant.

[4] = Arteriovenous shunt model, thrombus weight; type: in vivo, Sprague-Dawley male rats; conditions: SEQ ID NO:2 33.3 mg/kg i.v. 5 min prior; Rivaroxaban 10 mg/kg p.o. 90 min prior; 15 min extracorporeal circulation
Protocol: This study was conducted at Shanghai WuXi AppTec Co., Ltd., and in accordance with WuXi IACUC standard animal procedures along with the IACUC guidelines that are in compliance with the Animal Welfare Act, the Guide for the Care and Use of Laboratory Animals, and the Office of Laboratory Animal Welfare (OLAW). Sprague-Dawley male rats with body weight ranging between 150-200 g (Vital River; Bejing, P.R. China) were fed ad libitum a rodent diet. Animals had free access to autoclaved and acidified drinking water. Animals were housed under standard laboratory conditions, air conditioned and filtered with adequate fresh air supply. Animals were kept in a climate controlled environment. Rivaroxaban (10 mg/kg) has been dissolved in water and stored at 4° C. 20 mg SEQ ID NO:2 (Biospring) was dissolved in 3 ml Saline, vortexed for 5 min., sonicated with a water bath ultrasonic for 1 minute to achieve 6.66 mg/ml SEQ ID NO:2. The animals were assigned to 3 dosing groups according to the body weight (see table 2). […] Extracorporeal circulation was maintained for 15 min, the thrombus weight formed on the thread was calculated by subtracting the average weight of the rough nylon thread. Significance of difference between control and treated groups was analyzed by performing analysis of variance (ANOVA) by EXCEL office software.

Row | Structure (SMILES) | Prothrombin times compared to vehicle group [1] | Activated Partial Thromboplastin Time (APTT) compared to vehicle group [2] | group average bleeding time compared to matched vehicle group ([3]; female rats) | group average bleeding time compared to matched vehicle group ([3]; male rats) | thrombus weight, less than vehicle group [4] [%]
1 | O=C(NC[C@H]1CN(c2ccc(N3CCOCC3=O)cc2)C(=O)O1)c1ccc(Cl)s1 [Rivaroxaban, reference compound] | significantly prolonged | did not show any different | increased significantly | increased significantly | 26.5
2 | CC(=O)CC(c1ccccc1)c1c(O)c2ccccc2oc1=O (stereo not shown) [Warfarin, reference compound] |  |  | increased significantly | increased significantly | 
